Experimental findings from US20030003396A1, “Optical data carrier comprising a merocyanine dye as light-absorbent compound in the information layer” (priority 2001, published 2003) are described below.

Data set [1] can be described thus: UV absorption spectra measured in solution. It is filed as physicochemical. The settings on record: for ε (molar extinction coefficient): at absorption maximum; for Δλ (solvent-induced wavelength shift): |λDMF−λdioxane|; for Δλ: Table 3, |λDMF-λdioxane|. The source says:
In the case of a write-once optical data carrier according to the invention which is written on and read by means of the light of a blue laser, preference is given to merocyanine dyes whose absorption maximum λmax1 is in the range from 340 to 410 nm, […] half of the […] one tenth of the absorbance value at λmax1 are preferably not more than 50 nm apart. Such a merocyanine dye preferably has no longer-wavelength maximum λmax2 up to a wavelength of 500 nm, particularly preferably up to 550 nm, very particularly preferably up to 600 nm.
The absorption spectra are measured, for example, in solution.
Suitable merocyanines having the required spectral properties are, in particular, those in which the dipole moment change Δμ=|μg−μag|, i.e. the positive difference between the dipole moments in the ground state and in the first excited state, is very small, preferably <5 D, particularly preferably <2 D. A method of determining such a dipole moment change Δμ is described, for example, in F. Würthner et al., Angew. Chem. 1997, 109, 2933, and in the literature cited therein. A low solvent-induced wavelength shift (dioxane/DMF) is likewise a suitable selection criterion. Preference is given to merocyanines whose solvent-induced wavelength shift Δλ=|λDMF−λdioxane|, i.e. the positive difference between the absorption wavelengths in the solvents dimethylformamide and dioxane, is <20 nm, particularly preferably <10 nm, very particularly preferably <5 nm

A short description of data set [2]: Solubility in coating solvent.
Setting [3] is: in TFP (2,2,3,3-tetrafluoropropanol).
Where [4] appears, read: Table 3, on the short wavelength flank.

Marks after values point to notes of the source that are not given here.

In the case of `CCOC(=O)C1=C(C#N)C(=O)N(C)C(=O)/C1=C/C=C1\N(C)c2ccccc2C1(C)C` [Example 1], in data set [1], the “ε (molar extinction coefficient)” value turned out to be 56010 L/mol/cm and the “Δλ (solvent-induced wavelength shift)” value stood at 22 nm. Further, the “UV λmax” value in data set [1] (in DMF) came out at 609 nm. For the same compound, in data set [1] (in dioxane), the “UV λmax” value was 587 nm. Besides, in data set [1] (long wavelength flank), the λ1/2-λ1/10 stood at 27 nm. Besides, the Solubility in data set [2] (setting [3]) was > 2%.

Regarding `CCOC(=O)C1=C(C#N)C(=O)N(C)C(=O)/C1=C/C=C/N(C)C` [Example 2], the “ε (molar extinction coefficient)” value in data set [1] was 31630 L/mol/cm. Also, the “UV λmax” value in data set [1] (in DMF) is 567 nm; in data set [1] (in dioxane), 542 nm. Also, the λ1/2-λ1/10 in data set [1] (short wavelength flank) is reported as 42 nm. For the same compound, the “Δλ (solvent-induced wavelength shift)” value in data set [1] is 25 nm. Besides, the Solubility in data set [2] (setting [3]) is > 2%.

As to `CC1=C([n+]2ccccc2)C(=O)NC(=O)/C1=C/C=C1\N(C)c2ccccc2C1(C)C` [Example 3], the “ε (molar extinction coefficient)” value in data set [1] amounted to 86510 L/mol/cm. Also, in data set [1] (in methanol), the UV λmax was found to be 513 nm. In addition, in data set [1] (short wavelength flank), the λ1/2-λ1/10 is on record as 38 nm. Also, the Solubility in data set [2] (setting [3]) is recorded as > 2%.

With `CCCCCCCCCCCCN1C(=O)/C(=C/c2ccc(N(C)C)o2)C(=O)N(C)C1=O` [Example 4], the “ε (molar extinction coefficient)” value in data set [1] is 53360 L/mol/cm. The “UV λmax” value in data set [1] (in dioxane) came to 483 nm. The λ1/2-λ1/10 in data set [1] (short wavelength flank) is reported as 32 nm. For the same compound, the Solubility in data set [2] (in benzyl alcohol) is > 1%.

In data set [1] (Table 2), `COC(=O)c1ccc2c(c1)C(C)(C)C(=CC=c1c(C)c(C#N)c(=C(C#N)C#N)[nH]c1=O)N2C` [Example 67] registered a ε of 50900 L/mol/cm. Besides, the λmax in data set [1] (Table 2, in methanol) is 554^5) nm.

Regarding `CCCN1C(=O)C(=CC=CN(C)C)C(C)=C(C#N)C1=O` [Example 68], the ε in data set [1] (Table 3) stood at 77180 L/mol/cm. For the same compound, the λmax in data set [1] (Table 3, in dioxane) turned out to be 462 nm. For the same compound, in data set [1] (setting [4]), the λ1/2-λ1/10 is given as 28^3) nm. The same compound came in with a Δλ in data set [1] of 8 nm.

In data set [1] (Table 3), `CCCCN1C(=O)C(=CC=CN(C)C)C(C(F)(F)F)=C(C#N)C1=O` [Example 71] returned a ε of 89100 L/mol/cm. Also, the λmax in data set [1] (Table 3, in DMF) is listed as 564^6) nm.

The compound `CCCCN1C(=O)C(=CC=CN(C)c2ccccc2)C(C)=C(C#N)C1=O` [Example 72] came in with a ε in data set [1] (Table 3) of 79685 L/mol/cm. Moreover, in data set [1] (Table 3, in dioxane), the λmax stood at 480 nm. The compound also gave a Δλ in data set [1] of 1.3 nm.

As to `CN(C=CC=C1C(=O)c2ccccc2C1=O)c1ccccc1` [Example 73], the ε in data set [1] (Table 3) stood at 84070 L/mol/cm. Also, the λmax in data set [1] (Table 3, in dioxane) was found to be 447 nm.

For the compound `CCCN1C(=O)C(=CC=CN(C)c2ccc(OC)cc2)C(C)=C(C#N)C1=O` [Example 74], in data set [1] (Table 3), the ε came out at 73010 L/mol/cm. This compound also showed a λmax in data set [1] (Table 3, in dioxane) of 482 nm. In addition, in data set [1], the Δλ was determined as 4.3 nm.

As for `COc1ccc(N(C)C=CC=C2C(=O)NC(=O)C([n+]3ccccc3)=C2C)cc1.[O-][Cl+3]([O-])([O-])[O-]` [Example 75], the ε in data set [1] (Table 3) amounted to 62780 L/mol/cm. For the same compound, the λmax in data set [1] (Table 3, in methanol) was 469^5) nm.

In turn, `C=C(C)C(=O)OCCN1C(=O)C(=CC=CN2CCOCC2)C(C)=C(C#N)C1=O` [Example 76] registered a ε in data set [1] (Table 3) of 89800 L/mol/cm. The λmax in data set [1] (Table 3, in dioxane) came to 458 nm. Further, the λ1/2-λ1/10 in data set [1] (setting [4]) is 28^3) nm.

In data set [1] (Table 3, in dioxane), `COC(=O)C(=CC=CN1CCOCC1)C(=O)OC` [Example 78] registered a λmax of 366 nm.

Consider `COC(=O)C(C#N)=CC=CN1CCOCC1` [Example 79], for which the ε in data set [1] (Table 3) was 62900 L/mol/cm. The same compound gave a λmax in data set [1] (Table 3, in dioxane) of 382 nm.

For `CCN1C(=O)C(=CC=CC=CN(C)c2ccccc2)C(C)=C(C#N)C1=O` [Example 80], the ε in data set [1] (Table 3) is 119800 L/mol/cm. In data set [1] (Table 3, in dioxane), this compound yielded a λmax of 585 nm. Further, in data set [1] (Table 3, on the long wavelength flank), the λ1/2-λ1/10 is 28^4) nm.

Turning to `CCCN1C(=O)C(=CC(C)=CN(C)C)C(C)=C(C#N)C1=O` [Example 83], in data set [1] (Table 3, in dioxane), the λmax turned out to be 337 nm.

As to `CCN1C(=O)C(=CC=CC=CN(C)C)C(C)=C(C#N)C1=O` [Example 84], in data set [1] (Table 3), the ε was 149800 L/mol/cm. Besides, in data set [1] (Table 3, in DMF), the λmax is 552^6) nm.

In the case of `CCOC(=O)C(C#N)=c1[nH]c(=O)c(=CC=CN(C)C)c(C)c1C(=O)OCC` [Example 85], in data set [1] (Table 3, in methanol), the λmax is given as 509^5) nm.
